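Method: 48-hour compound exposure of cells in 96-well plates, five concentrations, linear interpolation of endpoints. Here, GI50 denotes the concentration required for 50% inhibition of growth.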 Active and inactive are the calls of the source. No stated cut-off is given here; in the data, active = GI50 up to about 1.1 µM and inactive = higher.
Columns and labels:
Assay in all cases: NCI tumour cell line growth inhibition, 48 h
NCI/ADR-RES = test system: NCI/ADR-RES
NCI-H460 = test system: NCI-H460
SN12C = test system: SN12C
M14 = test system: M14
MDA-N = test system: MDA-N
KM12 = test system: KM12
HCC 2998 = test system: HCC 2998
COLO 205 = test system: COLO 205
MOLT-4 = test system: MOLT-4
SR = test system: SR
HT-29 = test system: HT-29
SK-MEL-2 = test system: SK-MEL-2
K562 = test system: K562
Hs-578T = test system: Hs-578T
SF-539 = test system: SF-539
BT-549 = test system: BT-549
SF-295 = test system: SF-295
SK-OV-3 = test system: SK-OV-3
UACC-62 = test system: UACC-62
NCI-H522 = test system: NCI-H522

Measured: GI50

O=C(c1ccccc1)c1ccc(N2C(=O)/C(=C/Cc3ccco3)N=C2c2ccccc2)c(N2C(=O)/C(=C/Cc3ccco3)N=C2c2ccccc2)c1
inactive: NCI/ADR-RES 33.8 µM | NCI-H460 36.6 µM | SN12C 71.6 µM | M14 39.9 µM | MDA-N 60.3 µM | KM12 28.4 µM | HCC 2998 36.9 µM | COLO 205 38.6 µM | MOLT-4 18.8 µM | SR 28.6 µM | HT-29 43.4 µM | SK-MEL-2 25.5 µM | K562 64.7 µM | Hs-578T 25.8 µM | SF-539 16.2 µM | BT-549 35.6 µM | SF-295 30 µM | SK-OV-3 30.5 µM | UACC-62 26.5 µM

CC(C)C1=C(O)C(=O)C2=C(C1=O)C(O)CC1C(C)(C)CCCC21C (centres undefined)
inactive: NCI-H460 2.88 µM | SN12C 7.26 µM | M14 3.92 µM | MDA-N 2 µM | KM12 5.45 µM | HCC 2998 3.58 µM | COLO 205 12.8 µM | MOLT-4 25.8 µM | SR 4 µM | HT-29 22.1 µM | SK-MEL-2 2.84 µM | K562 6.56 µM | NCI-H522 21.6 µM | Hs-578T 3.88 µM | SF-539 16.9 µM | BT-549 8.55 µM | SF-295 21.7 µM | SK-OV-3 15 µM | UACC-62 2.67 µM

COc1cc([C@@H]2c3cc4c(cc3[C@H](OC3OC5COC(C(C)C)OC5C(O)C3O)C3COC(=O)[C@@H]32)OCO4)cc(OC)c1O (some centres undefined)
inactive: NCI/ADR-RES 9.38 µM | NCI-H460 2.04 µM | M14 11.4 µM | MDA-N 2.4 µM | KM12 16.1 µM | COLO 205 6.82 µM | MOLT-4 3.17 µM | SR 1.47 µM | HT-29 2.97 µM | SK-MEL-2 17.3 µM | K562 8.61 µM | NCI-H522 14 µM | Hs-578T 9.71 µM | SF-539 2.72 µM | BT-549 3.42 µM | SF-295 8.22 µM | SK-OV-3 17.3 µM | UACC-62 11.1 µM

CCC1(CC)C(=O)CC[C@@]2(C)C1=CC[C@H]1[C@@H]3CC[C@H](O)[C@@]3(C)CC[C@@H]12
inactive: NCI/ADR-RES 43.2 µM | NCI-H460 16.3 µM | SN12C 16.7 µM | M14 43.4 µM | MDA-N 31.3 µM | KM12 32.1 µM | COLO 205 28 µM | MOLT-4 25.6 µM | SR 15.4 µM | HT-29 15 µM | SK-MEL-2 79.3 µM | K562 16.4 µM | NCI-H522 19.8 µM | Hs-578T 24.4 µM | SF-539 29.2 µM | BT-549 > 100 µM | SF-295 22.8 µM | SK-OV-3 46.1 µM | UACC-62 54.7 µM

Cc1ccc(S(=O)(=O)N(CCN2C(=O)c3ccccc3C2=O)c2cc3c4c(c2)Oc2cc(N(CCN5C(=O)c6ccccc6C5=O)S(=O)(=O)c5ccc(C)cc5)cc5c2C4(C)c2c(cc(N(CCN4C(=O)c6ccccc6C4=O)S(=O)(=O)c4ccc(C)cc4)cc2O5)O3)cc1
inactive: NCI/ADR-RES > 100 µM | NCI-H460 > 100 µM | SN12C > 100 µM | M14 35.7 µM | MDA-N > 100 µM | KM12 > 100 µM | COLO 205 > 100 µM | MOLT-4 > 100 µM | SR > 100 µM | HT-29 > 100 µM | SK-MEL-2 > 100 µM | K562 > 100 µM | NCI-H522 > 100 µM | Hs-578T > 100 µM | SF-539 > 100 µM | BT-549 > 100 µM | SF-295 > 100 µM | SK-OV-3 > 100 µM | UACC-62 > 100 µM

COC(=O)c1c(C)c2c(c(C)c1C(=O)OC)-c1c(C)ccc3ccc(C)c-2c13
inactive: NCI/ADR-RES 26.7 µM | NCI-H460 18.6 µM | SN12C > 93.8 µM | M14 21 µM | MDA-N 61.5 µM | KM12 9.38 µM | COLO 205 34.4 µM | MOLT-4 14.4 µM | SR 6.78 µM | HT-29 7.82 µM | SK-MEL-2 > 100 µM | K562 3.03 µM | NCI-H522 31.2 µM | Hs-578T 23.7 µM | SF-539 51.5 µM | BT-549 > 100 µM | SF-295 11.4 µM | SK-OV-3 > 74.8 µM | UACC-62 47.5 µM

O=C1c2ccccc2-c2ccc(/N=N/c3c(O)ccc4ccccc34)cc21
inactive: NCI/ADR-RES > 100 µM | SN12C > 100 µM | M14 > 100 µM | MDA-N > 100 µM | KM12 > 100 µM | COLO 205 > 100 µM | MOLT-4 41.8 µM | HT-29 > 100 µM | SK-MEL-2 > 100 µM | K562 > 100 µM | NCI-H522 > 100 µM | Hs-578T > 100 µM | BT-549 > 100 µM | SF-295 > 100 µM | SK-OV-3 > 100 µM | UACC-62 > 100 µM

Cc1c(C2CCSc3ccccc3N2)sc2ccccc12 (centres undefined)
inactive: NCI/ADR-RES 46 µM | NCI-H460 90.2 µM | SN12C > 100 µM | M14 > 100 µM | MDA-N 39.8 µM | KM12 65.6 µM | HCC 2998 80.4 µM | COLO 205 > 100 µM | MOLT-4 77.3 µM | HT-29 54.8 µM | SK-MEL-2 > 100 µM | K562 51.5 µM | NCI-H522 47 µM | Hs-578T > 100 µM | SF-539 > 100 µM | BT-549 > 100 µM | SF-295 > 100 µM | SK-OV-3 > 100 µM | UACC-62 > 100 µM

Cc1cn(CCCCCOC(=O)NC(CCCNC(=N)N)C(=O)O)c(=O)[nH]c1=O (centres undefined)
inactive: NCI/ADR-RES 23.1 µM | NCI-H460 38.2 µM | SN12C 56.8 µM | M14 55.6 µM | MDA-N 6.9 µM | KM12 19 µM | HCC 2998 35.7 µM | COLO 205 26.1 µM | MOLT-4 35.6 µM | SR 2.57 µM | HT-29 24.2 µM | SK-MEL-2 > 100 µM | K562 16.1 µM | Hs-578T 15.5 µM | SF-539 45.7 µM | BT-549 > 100 µM | SF-295 28.2 µM | SK-OV-3 48.9 µM | UACC-62 26.7 µM

O=C(/C=C/c1ccc(O)cc1)NCCc1ccc(O)cc1 [N-P-COUMAROYL TYRAMINE]
inactive: NCI/ADR-RES 3.62 µM | NCI-H460 11.2 µM | SN12C 5 µM | M14 > 12.5 µM | MDA-N > 12.5 µM | KM12 > 12.5 µM | COLO 205 > 12.5 µM | SR 4.02 µM | HT-29 > 12.5 µM | SK-MEL-2 > 12.5 µM | K562 5.6 µM | NCI-H522 3.38 µM | Hs-578T > 12.5 µM | SF-539 3.13 µM | BT-549 7.53 µM | SF-295 8.13 µM | UACC-62 7.41 µM

Reference: ChEMBL document CHEMBL1201862, “PubChem BioAssay data set” (2004)
